Measurements taken from patent US8574563B2 (Bristol-Myers Squibb Company, priority 2006, dated 2013).
Where two headings read alike, the source gives them in different places.

Tested on: HCV 1b-377-neo replicon cells
Assay: HCV replicon assay, HCV 1b-377-neo replicon cells (1b FRET)
Assay type: cell-based, Hepatitis C virus genotype 1b
Settings: HCV 1b-377-neo replicon cells, HCV 1b genotype; for EC50: read-out: EC50 range against HCV 1b (Table 2, Range)
Method in brief: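 Compounds tested in HCV genotype 1b-377-neo replicon cells with a FRET read-out. Cells resistant to a reference NS5A inhibitor through a Y2065H NS5A mutation were run alongside wild-type cells.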

SMILES	EC50 (Hepatitis C virus)	further results
CCN(CC)[C@@H](C(=O)N1CCC[C@H]1c1ncc(-c2ccc(-c3ccc(-c4cnc([C@@H]5CCCN5C(=O)[C@H](NC(=O)OC)c5ccccc5)[nH]4)cc3)cc2F)[nH]1)c1ccccc1 [Example D39, methyl ((1R)-2-((2S)-2-(5-(4′-(2-((2S)-1-((2R)-2-(diethylamino)-2-phenylacetyl)-2-pyrrolidinyl)-1H-imidazol-5-yl)-3′-fluoro-4-biphenylyl)-1H-imidazol-2-yl)-1-pyrrolidinyl)-2-oxo-1-phenylethyl)carbamate]	0.001 to 0.999 nM	
COC(=O)N[C@@H](C(=O)N1CCC[C@H]1c1ncc(-c2ccc(-c3ccc(-c4cnc([C@@H]5CCCN5C(=O)C5CN(C(=O)OC(C)(C)C)C5)[nH]4)cc3)cc2)[nH]1)c1ccccc1 [Example 84-27, tert-butyl 3-(((2S)-2-(5-(4′-(2-((2S)-1-((2R)-2-((methoxycarbonyl)amino)-2-phenylacetyl)-2-pyrrolidinyl)-1H-imidazol-5-yl)-4-biphenylyl)-1H-imidazol-2-yl)-1-pyrrolidinyl)carbonyl)-1-azetidinecarboxylate]	0.001 to 0.999 nM	
COC(=O)N[C@@H](C(=O)N1CCC[C@H]1c1ncc(-c2ccc(-c3ccc(-c4cnc([C@@H]5CCCN5C(=O)[C@@H]5CCCN5C)[nH]4)cc3)cc2)[nH]1)c1ccccc1 [Example 52, methyl ((1R)-2-((2S)-2-(5-(4′-(2-((2S)-1-(1-methyl-L-propyl)-2-pyrrolidinyl)-1H-imidazol-5-yl)-4-biphenylyl)-1H-imidazol-2-yl)-1-pyrrolidinyl)-2-oxo-1-phenylethyl)carbamate]		EC50: 0.001 to 0.999 nM
COC(=O)N[C@H](C(=O)N1CCC[C@H]1c1ncc(-c2ccc(-c3ccc(-c4cnc([C@@H]5CCCN5C(=O)[C@@H](NC(=O)OC)[C@H](C)O)[nH]4)cc3)cc2)[nH]1)[C@H](C)O [Example M16, methyl ((1S,2S)-2-hydroxy-1-(((2S)-2-(5-(4′-(2-((2S)-1-((2S,3S)-3-hydroxy-2-((methoxycarbonyl)amino)butanoyl)-2-pyrrolidinyl)-1H-imidazol-5-yl)-4-biphenylyl)-1H-imidazol-2-yl)-1-pyrrolidinyl)carbonyl)propyl)carbamate]	1000 to 10000 nM	
COC(=O)N[C@H](C(=O)N1CC(F)(F)C[C@H]1c1ncc(-c2ccc(-c3ccc(-c4cnc([C@@H]5CC(F)(F)CN5C(=O)[C@@H](NC(=O)OC)C(C)C)[nH]4)cc3)cc2)[nH]1)C(C)C [OL-7, methyl ((1S)-1-(((2S)-2-(4-(4′-(2-((2S)-4,4-difluoro-1-((2S)-2-((methoxycarbonyl)amino)-3-methylbutanoyl)-2-pyrrolidinyl)-1H-imidazol-4-yl)-4-biphenylyl)-1H-imidazol-2-yl)-4,4-difluoro-1-pyrrolidinyl)carbonyl)-2-methylpropyl)carbamate]	0.001 to 0.999 nM	
CCCN(CCC)[C@H](C)C(=O)N1CCC[C@H]1c1ncc(-c2ccc(-c3ccc(-c4cnc([C@@H]5CCCN5C(=O)[C@H](NC(=O)OC)c5ccccc5)[nH]4)cc3)cc2)[nH]1 [Example M64, methyl ((1R)-2-((2S)-2-(5-(4′-(2-((2S)-1-(N,N-dipropyl-D-alanyl)-2-pyrrolidinyl)-1H-imidazol-5-yl)-4-biphenylyl)-1H-imidazol-2-yl)-1-pyrrolidinyl)-2-oxo-1-phenylethyl)carbamate]	1 to 99 nM	
CN(C)[C@@H](C(=O)N1CCC[C@H]1c1ncc(-c2ccc(-c3ccc(-c4cnc([C@@H]5CCCN5C(=O)Cc5ccccc5F)[nH]4)cc3)cc2)[nH]1)c1ccccc1 [Example 94-51, (1R)-2-((2S)-2-(5-(4′-(2-((2S)-1-((2-fluorophenyl)acetyl)-2-pyrrolidinyl)-1H-imidazol-5-yl)-4-biphenylyl)-1H-imidazol-2-yl)-1-pyrrolidinyl)-N,N-dimethyl-2-oxo-1-phenylethanamine]	0.001 to 0.999 nM	
CCN(CC)[C@@H](C(=O)N1CCC[C@H]1c1nc(-c2ccc(-c3ccc(-c4cnc([C@@H]5CCCN5C(=O)[C@@](C)(NC(=O)OC)C(C)C)[nH]4)cc3)cc2)c[nH]1)c1ccccc1 [Example F43, methyl ((1S)-1-(((2S)-2-(5-(4′-(2-((2S)-1-((2R)-2-(diethylamino)-2-phenylacetyl)-2-pyrrolidinyl)-1H-imidazol-4-yl)-4-biphenylyl)-1H-imidazol-2-yl)-1-pyrrolidinyl)carbonyl)-1,2-dimethylpropyl)carbamate]	0.001 to 0.999 nM	
COC(=O)N[C@@H]1CCCC[C@H]1C(=O)N1CCC[C@H]1c1ncc(-c2ccc(-c3ccc(-c4cnc([C@@H]5CCCN5C(=O)[C@@H]5CCCC[C@H]5NC(=O)OC)[nH]4)cc3)cc2)[nH]1 [cj-139, dimethyl (4,4′-biphenyldiylbis(1H-imidazole-5,2-diyl(2S)-2,1-pyrrolidinediylcarbonyl(1R,2R)-2,1-cyclohexanediyl))biscarbamate]	1 to 99 nM	
CCN(CC)[C@@H](C(=O)N1CCC[C@H]1c1ncc(-c2ccc(-c3ccc(-c4cnc([C@@H]5CCCN5C(=O)[C@@H](c5ccccc5)N5CCOCC5)[nH]4)cc3)cc2)[nH]1)c1ccccc1 [Example M48, (1R)-N,N-diethyl-2-((2S)-2-(5-(4′-(2-((2S)-1-((2R)-2-(4-morpholinyl)-2-phenylacetyl)-2-pyrrolidinyl)-1H-imidazol-5-yl)-4-biphenylyl)-1H-imidazol-2-yl)-1-pyrrolidinyl)-2-oxo-1-phenylethanamine]	1 to 99 nM	
COC(=O)N[C@](C)(C(=O)N1CCC[C@H]1c1nc(-c2ccc(-c3ccc(-c4cnc([C@@H]5CCCN5C(=O)[C@@](C)(NC(=O)OC)C(C)C)[nH]4)cc3)cc2)c[nH]1)C(C)C [Example F37, methyl ((1S)-1-(((2S)-2-(4-(4′-(2-((2S)-1-((2S)-2-((methoxycarbonyl)amino)-2,3-dimethylbutanoyl)-2-pyrrolidinyl)-1H-imidazol-5-yl)-4-biphenylyl)-1H-imidazol-2-yl)-1-pyrrolidinyl)carbonyl)-1,2-dimethylpropyl)carbamate]	100 to 999 nM	
COC(=O)N[C@H](C(=O)N1CCC[C@H]1c1ncc(-c2ccc(-c3ccc(-c4cnc([C@@H]5CCCN5C(=O)[C@@H](Nc5n[nH]c(N)n5)C(C)C)[nH]4)cc3)cc2)[nH]1)C(C)C	0.001 to 0.999 nM	
O=C([C@@H](c1ccccc1)N1CCCC1)N1CCC[C@H]1c1ncc(-c2ccc(-c3ccc(-c4cnc([C@@H]5CCCN5C(=O)[C@@H](c5ccccc5)N5CCCC5)[nH]4)cc3C(F)(F)F)cc2)[nH]1 [Example 131]	0.001 to 0.999 nM	
COC(=O)N[C@@H](C(=O)N1CCC[C@H]1c1ncc(-c2ccc(-c3ccc(-c4cnc([C@@H]5CCCN5C(=O)[C@H](NC(=O)OC)c5ccccc5)[nH]4)cc3C(=O)O)cc2)[nH]1)c1ccccc1 [Example M117, 4,4′-bis(2-((2S)-1-((2R)-2-((methoxycarbonyl)amino)-2-phenylacetyl)-2-pyrrolidinyl)-1H-imidazol-5-yl)-2-biphenylcarboxylic acid]		EC50 range against HCV 1b (Table 2, Range): >A
COC(=O)N[C@@H](C(=O)N1CCC[C@H]1c1ncc(-c2ccc(-c3ccc(-c4cnc([C@@H]5CCCN5C(=O)[C@H](NC(=O)OC)C5CC5)[nH]4)cc3C(=O)O)cc2)[nH]1)C1CC1 [Example M115, 4,4′-bis(2-((2S)-1-((2R)-2-cyclopropyl-2-((methoxycarbonyl)amino)acetyl)-2-pyrrolidinyl)-1H-imidazol-5-yl)-2-biphenylcarboxylic acid]		EC50 range against HCV 1b (Table 2, Range): >A
CCN(CC)[C@@H](C(=O)N1C[C@@H](F)C[C@H]1c1ncc(-c2ccc(-c3ccc(-c4cnc([C@@H]5C[C@H](F)CN5C(=O)[C@@H](NC(=O)OC)C(C)C)[nH]4)cc3)cc2)[nH]1)c1ccccc1 [JG-15, methyl ((1S)-1-(((2S,4S)-2-(5-(4′-(2-((2S,4S)-1-((2R)-2-(diethylamino)-2-phenylacetyl)-4-fluoro-2-pyrrolidinyl)-1H-imidazol-5-yl)-4-biphenylyl)-1H-imidazol-2-yl)-4-fluoro-1-pyrrolidinyl)carbonyl)-2-methylpropyl)carbamate]	0.001 to 0.999 nM	
COC(=O)N[C@@H](C(=O)N1CCC[C@H]1c1ncc(-c2ccc(-c3ccc(-c4cnc([C@@H]5CCCN5C(=O)[C@@H](c5ccccc5)N(C)C)[nH]4)cc3C)c(C)c2)[nH]1)c1ccccc1 [Example 129, methyl ((1R)-2-((2S)-2-(5-(4′-(2-((2S)-1-((2R)-2-(dimethylamino)-2-phenylacetyl)-2-pyrrolidinyl)-1H-imidazol-5-yl)-2,2′-dimethyl-4-biphenylyl)-1H-imidazol-2-yl)-1-pyrrolidinyl)-2-oxo-1-phenylethyl)carbamate]	0.001 to 0.999 nM	
CCN(CC)[C@@H](C(=O)N1CCC[C@H]1c1ncc(-c2ccc(-c3ccc(-c4cnc([C@@H]5CCCN5C(=O)C[C@H](C)NC(=O)OC)[nH]4)cc3)cc2)[nH]1)c1ccccc1 [cj-51, methyl ((1S)-3-((2S)-2-(5-(4′-(2-((2S)-1-((2R)-2-(diethylamino)-2-phenylacetyl)-2-pyrrolidinyl)-1H-imidazol-5-yl)-4-biphenylyl)-1H-imidazol-2-yl)-1-pyrrolidinyl)-1-methyl-3-oxopropyl)carbamate]	0.001 to 0.999 nM	
COC(=O)N[C@H](C(=O)N1CC(F)(F)C[C@H]1c1nc(-c2ccc(-c3ccc(-c4cnc([C@@H]5CCCN5C(=O)[C@@H](NC(=O)OC)C(C)C)[nH]4)c(F)c3)cc2)c[nH]1)C(C)C [Example J14e, methyl ((1S)-1-(((2S)-4,4-difluoro-2-(4-(3′-fluoro-4′-(2-((2S)-1-((2S)-2-((methoxycarbonyl)amino)-3-methylbutanoyl)-2-pyrrolidinyl)-1H-imidazol-4-yl)-4-biphenylyl)-1H-imidazol-2-yl)-1-pyrrolidinyl)carbonyl)-2-methylpropyl)carbamate]	0.001 to 0.999 nM	
Cc1cc(CC(=O)N2CCC[C@H]2c2ncc(-c3ccc(-c4ccc(-c5cnc([C@@H]6CCCN6C(=O)[C@@H](c6ccccc6)N6CCCCC6)[nH]5)cc4)cc3)[nH]2)on1 [Example 107-24, 1-((1R)-2-((2S)-2-(5-(4′-(2-((2S)-1-((3-methyl-5-isoxazolyl)acetyl)-2-pyrrolidinyl)-1H-imidazol-5-yl)-4-biphenylyl)-1H-imidazol-2-yl)-1-pyrrolidinyl)-2-oxo-1-phenylethyl) piperidine]	0.001 to 0.999 nM	
